Data on one substance can be found in patent US10272261B2, “Methods and compositions for treating ocular glaucoma” (Massachusetts Eye and Ear Infirmary, priority 2004, dated 2019).

Type in all cases: in vivo, mouse
For series [1], the system named is ciliary body. The series is described as follows: TUNEL staining after PDT in DBA/2J mice. Conditions: 1.0 mg/kg, 180 degrees; 1 day after PDT. On the procedure: (§1) Lectin labeling of vascular endothelial cells and TUNEL staining (to examine apoptotic cells) was performed 1 day after PDT in C57BL16 normal mice (n=2). In DBA/2J mice, only TUNEL staining was performed. PDT was performed to cover 180 degrees of the ciliary body at a dose of 4.0 mg/kg (C57BL/6) and 1.0 mg/kg (DBA/2J) verteporfin to compare the degree of staining between irradiated area and non-irradiated area. Non-operated fellow eyes (n=2) were used as controls. After sufficient anesthesia, the animals were perfused with 8 mL phosphate buffered saline (PBS) administered via a catheter in the left ventricle. After PBS perfusion, fluorescein-isothiocyanate (FITC)-coupled Concanavalin A lectin (20 μg/mL in PBS, pH 7.4, 5 mg/kg BW)(Vector Labs, Burlingame, Calif.) was then perfused to stain vascular endothelial cells. Four percent paraformaldehyde in 0.1 PBS (pH 7.4) was perfused following PBS perfusion to remove residual unbound lectin. Enucleated eyes were fixed in 4% paraformaldehyde in 0.1 PBS overnight and were immersed in graded sucrose in 0.1 PBS. The samples were embedded in optimal cutting temperature (OCT) compound (Tissue-Tek, Tokyo, Japan), and sectioned vertically at 10-μm. TUNEL staining was performed according to the manufacturer's protocol (Fluorescein In Situ Apoptosis Detection Kit; CHEMICON International, Temecula, Calif.) to detect retinal cell death induced by PDT. […]

In a further series the test system is DBA/2J glaucoma mice. The experiment in a line: IOP measurement (applanation tonometer) after transscleral ciliary body PDT in DBA/2J glaucoma mice. On the procedure:
All experiments were performed in accordance with the Association for Research in Vision and Ophthalmology Statement for the Use of Animals in Ophthalmic and Vision Research. C57BL/6 female mice aged 3 months (n=20) were used as the normal model. DBA/2J female mice aged 8 months (n=20) were used as the glaucoma mouse model. One eye of each animal was treated and the other eye served as a control (for both the normal and glaucoma models). Animals were housed in covered cages, were fed with a standard rodent diet ad libitum and were kept under constant 12 hour light-12 hour dark cycles. For general anesthesia, a mixture of ketamine (100 mg/kg) and xylazine (9 mg/kg) was administered intraperitoneally.
DBA/2J mice spontaneously develop essential iris atrophy, pigment dispersion, and glaucomatous changes. The IOP becomes elevated in most mice by the age of 9 months, which can be followed by ganglion cell loss, optic nerve atrophy and optic nerve cupping. As glaucoma developed, ganglion cell loss and mild cupping of the optic nerve were present in some animals by 11 months and in the majority of mice by the age of 22 months.
Verteporfin photosensitizer (Novartis Ophthalmics, Inc., Duluth, Ga.) was used in these experiments. The mice were systemically anesthetized prior to PDT, and the photosensitizer dye was administered to the animals by tail vain injections using a 30 G needle 5 minutes before laser irradiation. A dose of 2.0 or 4.0 mg/kg was used in C57BL/6 normal mice and of 1.0 mg/kg was used in DBA/2J mice. The laser irradiation to the ciliary body was applied transsclerally using a 600 μm optical fiber at a wavelength of light of 689 nm from a Diode Laser, with an irradiance of 1800 mW/cm^2 and a fluence of 100 J/cm^2 (Lumenis, Santa Clara, Calif.). Transscleral irradiation of the ciliary body was performed with applications for 360 degrees of the corneoscleral limbus in C57BL/6 normal mice and for 180 degrees in DBA/2J mice. In the C57BL/6 and DBA/2J mice, 16 and 8 spots, respectively, were irradiated to overlap with one another. In the eyes prepared for lectin labeling and terminal deoxynucleotide transferase-mediated nick end labeling (TUNEL) staining (a measure of apoptosis), PDT was performed in C57BL/6 mice to cover 180 degrees of the ciliary body at a 4.0 mg/kg verteporfin dose to compare the degree of staining between irradiated area and non-irradiated area. Retreatment was performed in C57BL/6 normal mice which had been treated with 2.0 mg/kg of verteporfin after the IOP measurement at post-PDT day 7 using the same light parameters.
The IOP was measured using a previously reported applanation tonometer (Ahamed et al. (2003) IOVS 44:ARVO E-Abstract 3336) (n=12 in DBA/2J mice, n=5 in C57BL/6 mice at each dose). The principle of applanation tonometry employs fiber-optic gauges which are designed around a Fabry-Perot interferometer (FPI) (FTI-10; FISO Technologies, Inc., Quebec, Canada). FPI consists of two mirrors facing each other, the space separating the mirrors being called the cavity length. Light reflected in the FPI is wavelength-modulated in exact accordance with the cavity length. […]
IOP was measured under general anesthesia. […]
As soon as the mice were anesthetized sufficiently, they were placed on a surgical platform. When the pressure sensor applanated a central area of mouse cornea under a dissecting microscope, the IOP (psi) was measured by the device 10 times automatically. […]

The test system of series [2] is ciliary body. The series is described as follows: Lectin labeling of vascular endothelial cells and TUNEL staining after PDT in C57BL/6 normal mice. The following applies: 4.0 mg/kg, 180 degrees; 1 day after PDT. As to the method:
as §1

The next series relates to DBA/2J mice. The experiment in a line: Ocular complications of ciliary body PDT in DBA/2J mice (preliminary and changed parameters).

Take verteporfin: the “TUNEL positive (apoptotic) cells” value in the series on ciliary body [1] is “Many TUNEL positive cells were seen in the ciliary process in both the treated and untreated sides of the treated eye”; in the series with ciliary body [2] it was “some TUNEL positive cells in the ciliary body and retina of the PDT treated eyes”. Moreover, the “mean IOP of treated eyes” value with DBA/2J glaucoma mice (1.0 mg/kg i.v., 689 nm, 100 J/cm^2, 180 degrees, 1 day after treatment) was found to be 15.9±5.7 mmHg; in the series with DBA/2J glaucoma mice (1.0 mg/kg, 180 degrees, 3 days after PDT) it was 9.5±3.4 mmHg. Further, the “difference of mean IOP between fellow control eyes and treated eyes” value in the series on DBA/2J glaucoma mice (1.0 mg/kg, 180 degrees, 1 day after PDT) was “no significant difference”. For the same substance, the “reduction of mean IOP of treated eyes compared to fellow control eyes” value with DBA/2J glaucoma mice (1.0 mg/kg, 180 degrees, 3 days after PDT, p<0.05) was 40.8%. In addition, the IOP reduction result in the series with DBA/2J glaucoma mice (1.0 mg/kg, treatment of 180°) was “significant reduction of IOP”. For the same substance, the “lectin staining of ciliary body vessels on the treated side” value with ciliary body [2] is on record as “showed little staining with lectin”. The ocular complications entry in the series with DBA/2J mice (2 mg/kg, irradiated in 360 degrees of the corneoscleral limbus (preliminary)) is “severe damage such as corneal edema, hyphema, and corneal neovascularization occurred with high frequency”; in the series with DBA/2J mice (after change of parameters (1.0 mg/kg, 180 degrees)), “these complications were not seen”.
